Assay results: PMC8342319, “Predicting blood-to-plasma concentration ratios of drugs from chemical structures and volumes of distribution in humans” (Molecular Diversity, 2021)
Read-outs that look alike come from different tables or passages of the source.

Assays:
[1] = human
plasma protein = settings: cited from earlier work; for fp_Human (free fraction in plasma): human
[2] = cited from earlier work
[3] = human, cited from earlier work
[4] = human, cited from earlier work; for Rb_Human: blood-to-plasma concentration ratio, median if multiple values reported, Reference of Table S1
[5] = collected value, median if multiple values were reported, ref: Table S1
[6] = human, intravenous, median if multiple values were reported, ref numbers in Table S1
[7] = intravenous, median if multiple values were reported, ref numbers in Table S1
[8] = median if multiple values were reported, ref numbers in Table S1
[9] = free fraction in human plasma, median if multiple values reported, Reference of Table S1
[10] = human, intravenous, median if multiple values reported, Reference of Table S1
[11] = intravenous, median if multiple values reported, Reference of Table S1

CC(C)NCC(O)COc1ccc(CCOCC2CC2)cc1 (stereo not shown) [Betaxolol]
in vivo MRT_(hr)_Human [1]: 23.529 h | fp_Human (free fraction in plasma) (plasma protein; [5]): 0.495 | in vivo CL_(L/hr/kg)_Human [2, 6]: 0.204 L/h/kg | in vivo Vd_(L/kg)_Human [3, 7]: 4.800 L/kg | Rb_Human (blood-to-plasma concentration ratio) [4, 8]: 0.79

CC[C@H](C)C[C@H](C)CCCCCCCCC(=O)N[C@H]1C[C@@H](O)[C@@H](NCCN)NC(=O)[C@@H]2[C@@H](O)CCN2C(=O)[C@H]([C@H](O)CCN)NC(=O)[C@H]([C@H](O)[C@@H](O)c2ccc(O)cc2)NC(=O)[C@@H]2C[C@@H](O)CN2C(=O)[C@H]([C@@H](C)O)NC1=O [Caspofungin]
in vivo MRT_(hr)_Human [1]: 15.476 h | fp_Human (free fraction in plasma) (plasma protein; plasma): 0.035 | in vivo CL_(L/hr/kg)_Human ([2]; in vivo, iv): 0.008 L/h/kg | in vivo Vd_(L/kg)_Human ([3]; in vivo, iv): 0.130 L/kg | Rb_Human (blood-to-plasma concentration ratio) ([4]; plasma): 0.74

CO[C@@]1(NC(=O)C2SC(=C(C(N)=O)C(=O)O)S2)C(=O)N2C(C(=O)O)=C(CSc3nnnn3C)CS[C@@H]21 (stereo partly shown) [Cefotetan]
in vivo MRT_(hr)_Human [1]: 5.159 h | fp_Human (free fraction in plasma) (plasma protein; [5]): 0.150 | in vivo CL_(L/hr/kg)_Human [2, 6]: 0.025 L/h/kg | in vivo Vd_(L/kg)_Human [3, 7]: 0.130 L/kg | Rb_Human (blood-to-plasma concentration ratio) [4, 8]: 0.65

CC(C)(O/N=C(\C(=O)N[C@@H]1C(=O)N2C(C(=O)[O-])=C(C[n+]3ccccc3)CS[C@H]12)c1csc(N)n1)C(=O)O [Ceftazidime]
in vivo MRT_(hr)_Human [1]: 2.153 h | fp_Human (free fraction in plasma) (plasma protein; [5]): 0.790 | in vivo CL_(L/hr/kg)_Human [2, 6]: 0.144 L/h/kg | in vivo Vd_(L/kg)_Human [3, 7]: 0.310 L/kg | Rb_Human (blood-to-plasma concentration ratio) [4, 8]: 0.72

CN(C)CCC(c1ccc(Cl)cc1)c1ccccn1 (stereo not shown) [Chlorpheniramine]
in vivo MRT_(hr)_Human [1]: 22.000 h | fp_Human (free fraction in plasma) (plasma protein; [5]): 0.280 | in vivo CL_(L/hr/kg)_Human [2, 6]: 0.150 L/h/kg | in vivo Vd_(L/kg)_Human [3, 7]: 3.300 L/kg | Rb_Human (blood-to-plasma concentration ratio) [4, 8]: 1.34

Clc1cccc(Cl)c1N=C1NCCN1 [Clonidine]
in vivo MRT_(hr)_Human [1]: 13.750 h | fp_Human (free fraction in plasma) (plasma protein; [5]): 0.560 | in vivo CL_(L/hr/kg)_Human [2, 6]: 0.213 L/h/kg | in vivo Vd_(L/kg)_Human [3, 7]: 3.300 L/kg | Rb_Human (blood-to-plasma concentration ratio) [4, 8]: 1.04

OCCN1CCN(CCCN2c3ccccc3Sc3ccc(C(F)(F)F)cc32)CC1 [Fluphenazine]
in vivo MRT_(hr)_Human [1]: 4.983 h | fp_Human (free fraction in plasma) (plasma protein; [5]): 0.040 | in vivo CL_(L/hr/kg)_Human [2, 6]: 0.591 L/h/kg | in vivo Vd_(L/kg)_Human [3, 7]: 2.900 L/kg | Rb_Human (blood-to-plasma concentration ratio) [4, 8]: 0.69

C[C@@H]1C[C@H]2[C@@H]3C[C@H](F)C4=CC(=O)C=C[C@]4(C)[C@@]3(F)[C@@H](O)C[C@]2(C)[C@@]1(O)C(=O)SCF [Fluticasone]
in vivo MRT_(hr)_Human [1]: 3.529 h | fp_Human (free fraction in plasma) (plasma protein; [5]): 0.100 | in vivo CL_(L/hr/kg)_Human [2, 6]: 1.020 L/h/kg | in vivo Vd_(L/kg)_Human [3, 7]: 3.600 L/kg | Rb_Human (blood-to-plasma concentration ratio) [4, 8]: 0.60

CCCCC1=NC2(CCCC2)C(=O)N1Cc1ccc(-c2ccccc2-c2nnn[nH]2)cc1 [Irbesartan]
in vivo MRT_(hr)_Human [1]: 6.812 h | fp_Human (free fraction in plasma) (plasma protein; [5]): 0.100 | in vivo CL_(L/hr/kg)_Human [2, 6]: 0.133 L/h/kg | in vivo Vd_(L/kg)_Human [3, 7]: 0.940 L/kg | Rb_Human (blood-to-plasma concentration ratio) [4, 8]: 0.60

CNCCCC12CCC(c3ccccc31)c1ccccc12 [Maprotiline]
in vivo MRT_(hr)_Human [1]: 53.571 h | fp_Human (free fraction in plasma) (plasma protein; [5]): 0.115 | in vivo CL_(L/hr/kg)_Human [2, 6]: 0.840 L/h/kg | in vivo Vd_(L/kg)_Human [3, 7]: 45.000 L/kg | Rb_Human (blood-to-plasma concentration ratio) [4, 8]: 1.70

N[C@@H](Cc1ccc(N(CCCl)CCCl)cc1)C(=O)O [Melphalan]
in vivo MRT_(hr)_Human [1]: 1.143 h | fp_Human (free fraction in plasma) (plasma protein; [5]): 0.120 | in vivo CL_(L/hr/kg)_Human [2, 6]: 0.366 L/h/kg | in vivo Vd_(L/kg)_Human ([3]; in vivo, iv): 0.480 L/kg | Rb_Human (blood-to-plasma concentration ratio) ([4]; plasma): 0.96

CCOC(=O)C1(c2ccccc2)CCN(C)CC1 [Meperidine]
in vivo MRT_(hr)_Human [1]: 11.395 h | fp_Human (free fraction in plasma) (plasma protein; [5]): 0.380 | in vivo CL_(L/hr/kg)_Human [2, 6]: 1.020 L/h/kg | in vivo Vd_(L/kg)_Human [3, 7]: 3.350 L/kg | Rb_Human (blood-to-plasma concentration ratio) [4, 8]: 1.01

Cc1cccc(C)c1OCC(C)N (stereo not shown) [Mexiletine]
in vivo MRT_(hr)_Human [1]: 11.847 h | fp_Human (free fraction in plasma) (plasma protein; [5]): 0.350 | in vivo CL_(L/hr/kg)_Human [2, 6]: 0.498 L/h/kg | in vivo Vd_(L/kg)_Human [3, 7]: 5.900 L/kg | Rb_Human (blood-to-plasma concentration ratio) [4, 8]: 1.12

Cc1ncc2n1-c1ccc(Cl)cc1C(c1ccccc1F)=NC2 [Midazolam]
in vivo MRT_(hr)_Human [1]: 3.459 h | fp_Human (plasma protein): 0.030 | fp_Human (free fraction in plasma) (plasma protein; [5]): 0.030 | in vivo CL_(L/hr/kg)_Human [2, 6]: 0.318 L/h/kg | in vivo Vd_(L/kg)_Human ([3]; in vivo, iv): 1.100 L/kg | Rb_Human (blood-to-plasma concentration ratio) [4, 8]: 0.68

CC(C)=CCN1CCC2(C)c3cc(O)ccc3CC1C2C (stereo not shown) [Pentazocine]
in vivo MRT_(hr)_Human [1]: 2.464 h | fp_Human (free fraction in plasma) (plasma protein; [5]): 0.380 | in vivo CL_(L/hr/kg)_Human [2, 6]: 1.380 L/h/kg | in vivo Vd_(L/kg)_Human ([3]; in vivo, iv): 3.400 L/kg | Rb_Human (blood-to-plasma concentration ratio) [4, 8]: 1.07

CCCNC(C)C(=O)Nc1ccccc1C (stereo not shown) [Prilocaine]
in vivo MRT_(hr)_Human [1]: 2.126 h | fp_Human (plasma protein; [9]): 0.665 | in vivo CL_(L/hr/kg)_Human [2, 10]: 1.740 L/h/kg | in vivo Vd_(L/kg)_Human [3, 11]: 3.700 L/kg | Rb_Human [4]: 1.25

CO[C@H]1/C=C/O[C@@]2(C)Oc3c(C)c(O)c4c(c3C2=O)C2=NC3(CCN(CC(C)C)CC3)NC2=C(NC(=O)/C(C)=C\C=C\[C@H](C)[C@H](O)[C@@H](C)[C@@H](O)[C@@H](C)[C@H](OC(C)=O)[C@@H]1C)C4=O [Rifabutin]
in vivo MRT_(hr)_Human [1]: 64.583 h | fp_Human (plasma protein; [9]): 0.290 | in vivo CL_(L/hr/kg)_Human [2, 10]: 0.144 L/h/kg | in vivo Vd_(L/kg)_Human [3, 11]: 9.300 L/kg | Rb_Human [4]: 0.59

CN(C)CCc1c[nH]c2ccc(Cn3cncn3)cc12 [Rizatriptan]
in vivo MRT_(hr)_Human [1]: 1.979 h | fp_Human (plasma protein; [9]): 0.860 | in vivo CL_(L/hr/kg)_Human [2, 10]: 0.960 L/h/kg | in vivo Vd_(L/kg)_Human [3, 11]: 1.900 L/kg | Rb_Human [4]: 1.04

C=CC[N+]1([C@H]2C[C@H]3[C@@H]4CC[C@H]5C[C@H](O)[C@@H](N6CCOCC6)C[C@]5(C)[C@H]4CC[C@]3(C)[C@H]2OC(C)=O)CCCC1 [Rocuronium]
in vivo MRT_(hr)_Human [1]: 0.946 h | fp_Human (plasma protein; [9]): 0.540 | in vivo CL_(L/hr/kg)_Human [2, 10]: 0.239 L/h/kg | in vivo Vd_(L/kg)_Human [3, 11]: 0.210 L/kg | Rb_Human [4]: 1.00

CN(c1nc2ccccc2s1)C1CCN(CC(O)COc2ccc(F)cc2)CC1 (stereo not shown) [Sabeluzole]
in vivo MRT_(hr)_Human [1]: 22.634 h | fp_Human (plasma protein; [9]): 0.012 | in vivo CL_(L/hr/kg)_Human [2, 10]: 0.243 L/h/kg | in vivo Vd_(L/kg)_Human [3, 11]: 5.500 L/kg | Rb_Human [4]: 0.82

Cc1ccsc1C(=CCCN1CCC[C@@H](C(=O)O)C1)c1sccc1C [Tiagabine]
in vivo MRT_(hr)_Human [1]: 11.458 h | fp_Human (plasma protein; [9]): 0.040 | in vivo CL_(L/hr/kg)_Human [2, 10]: 0.096 L/h/kg | in vivo Vd_(L/kg)_Human [3, 11]: 1.100 L/kg | Rb_Human [4]: 0.65

O=P(O)(O)C(Sc1ccc(Cl)cc1)P(=O)(O)O [Tiludronate]
in vivo MRT_(hr)_Human [1]: 55.556 h | fp_Human (plasma protein; [9]): 0.100 | in vivo CL_(L/hr/kg)_Human [2, 10]: 0.018 L/h/kg | in vivo Vd_(L/kg)_Human [3, 11]: 1.000 L/kg | Rb_Human [4]: 0.60

Cc1ccccc1OCC(O)CNCCOc1ccc(C(N)=O)cc1 (stereo not shown) [Tolamolol]
in vivo MRT_(hr)_Human [1]: 4.762 h | fp_Human (plasma protein; [9]): 0.089 | in vivo CL_(L/hr/kg)_Human [2, 10]: 0.840 L/h/kg | in vivo Vd_(L/kg)_Human [3, 11]: 4.000 L/kg | Rb_Human [4]: 0.76

O=c1n(CCCN2CCN(c3cccc(Cl)c3)CC2)nc2ccccn12 [Trazodone]
in vivo MRT_(hr)_Human [1]: 6.190 h | fp_Human (plasma protein; [9]): 0.073 | in vivo CL_(L/hr/kg)_Human [2, 10]: 0.084 L/h/kg | in vivo Vd_(L/kg)_Human [3, 11]: 0.520 L/kg | Rb_Human [4]: 0.81
